The test system of experiment [1] is CRS-induced depression model. Briefly: Sucrose preference test in CRS-induced depression model. As to conditions: CRS mice; 0.1 mg/kg intravenous; versus CRS + normal saline group (P<0.01).
Excerpt: After adapting to the environment, from day 0, the CRS mouse group was subjected to chronic, unpredictable mild stimulation for 21 days to simulate the chronic low-intensity stress received by humans in daily life. Every day, one stimulus was selected from the day and night to treat the mice, and the order was random and continuous without repetition, so that the mice could not predict the appearance of the stimulus (Table 1).
Two hours after administration, the mice were subjected to forced swimming and tail suspension tests, and the immobility time of the mice in each group in the forced swimming and tail suspension tests was compared.
The sucrose preference test is used to evaluate the sucrose water preference of mice, which can reflect the degree of anhedonia of mice. In the entire animal experiment, a total of two sucrose preference tests were conducted. Before modeling, the sucrose preference coefficient of all mice was measured by the sucrose preference tests to ensure that the mice in the experiment were in the same state. After the test, the sucrose preference tests were formally carried out, including the adaptation training part and the test part. […] After the adaptation, fasting and water deprivation for 24 hours, and then the sucrose preference coefficient was measured. […]
In experiment [2] the test system is AAD-induced depression model. Put plainly: Sucrose preference test in AAD-induced depression model. It counts as in vivo. As to conditions: AAD mice; 0.1 mg/kg intravenous; versus AAD mice + normal saline group (P<0.01). On the procedure:
(§1) 11, 12, and 13. […] At the same time, it still has a significant antidepressant effect at concentrations of 0.3 mg/kg, 1 mg/kg, and 10 mg/kg.

The subject of experiment [3] is AAD-induced depression model. Briefly: Forced swimming test in AAD-induced depression model. It counts as in vivo, mice. The settings on record: for immobility time: forced swimming, AAD mice, 2 hours after administration. Here is the method:
The forced swimming test apparatus is a transparent 20×30cm round barrel filled with pure water, with a diameter of 20cm and a water depth of 15cm. The pure water temperature is 23-25°C. A camera is installed in front of the apparatus and is flush with the water surface. After the mouse is placed in the water, a video of its activities in the water is collected for 6 minutes. The last 4 min of the video were analyzed to determine the immobility time of the mouse. Immobility behavior is defined as the behavior of the mouse floating, not struggling, or relying only on occasional swinging to maintain floating. The longer the immobility time, the more severe the depression.
as §1

Experiment [4] has as its system Cort-induced depression model. Put plainly: Sucrose preference test in Cort-induced depression model. The settings on record: Cort mice; 0.1 mg/kg intravenous; versus Cort mice + normal saline group (P<0.01).
Description: The sucrose preference test is used to evaluate the sucrose water preference of mice, which can reflect the degree of anhedonia of mice. In the entire animal experiment, a total of two sucrose preference tests were conducted. Before modeling, the sucrose preference coefficient of all mice was measured by the sucrose preference tests to ensure that the mice in the experiment were in the same state. After the test, the sucrose preference tests were formally carried out, including the adaptation training part and the test part. In the training, two bottles of 1% (w/v) sucrose solution were placed in each cage of mice in the first 24 hours, and one of the bottles was replaced with pure water in the next 24 hours. After the adaptation, fasting and water deprivation for 24 hours, and then the sucrose preference coefficient was measured. In the test, mice can only choose two bottles weighed in advance, one bottle is 1% (w/v) sucrose solution, and the other bottle is pure water. After fasting for 24 hours, take away the two bottles and weigh them, and record the total liquid consumption, sucrose water consumption and pure water consumption of the mice. The calculation method of sucrose preference coefficient is: sucrose preference coefficient (%) = sucrose water consumption/ (sucrose water consumption + pure water consumption) × 100%. […]
Experiment [5] concerns the target T1, human BBOX1 (Homo sapiens, UniProt O75936).
T1 sequence (O75936 1-387): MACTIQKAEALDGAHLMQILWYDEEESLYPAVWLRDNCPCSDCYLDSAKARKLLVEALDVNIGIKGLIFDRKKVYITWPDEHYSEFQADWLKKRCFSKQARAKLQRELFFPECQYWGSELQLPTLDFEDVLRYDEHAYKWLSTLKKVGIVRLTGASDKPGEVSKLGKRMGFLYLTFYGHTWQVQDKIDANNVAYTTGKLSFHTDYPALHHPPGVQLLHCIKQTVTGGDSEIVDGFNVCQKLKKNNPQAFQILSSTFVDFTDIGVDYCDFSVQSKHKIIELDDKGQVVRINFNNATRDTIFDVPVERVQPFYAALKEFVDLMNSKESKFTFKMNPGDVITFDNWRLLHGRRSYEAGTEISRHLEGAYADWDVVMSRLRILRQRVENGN
The settings on record: binding to the active site of human BBOX1; background statement; cited from earlier work.

Experiment [6] concerns AAD-induced depression model. Put plainly: Tail suspension test in AAD-induced depression model. The experiment is classed as in vivo. The settings on record: AAD mice, 2 hours after administration. On the procedure:
The tail suspension test uses tape to suspend mice by their tails in a position where they cannot escape or grab onto nearby surfaces. A camera is mounted in front of the mice to record the activity of the mice for 6 minutes while they are suspended. The last 4 min of the video is then analyzed to determine the time the mice spend immobile. This test is based on the idea that animals that are subjected to short-term, unavoidable stress will develop an immobile posture, and the more severe the depressive phenotype, the less time they will spend trying to escape.
as §1

Where [7] appears, read: 0.1 mg/kg intravenous, versus AAD mice + normal saline group.

Each structure is given as a SMILES string.

With `CC(CCC(=O)[O-])[N+](C)(C)C` (stereo not shown) [4-TMAP, 4-(trimethylammonio) pentanoate], the sucrose preference result in experiment [1], in experiment [2] and in experiment [4] was “significantly higher” each time. Moreover, in experiment [3] (mouse, in vivo, iv, 0.1 mg/kg), the “duration of the antidepressant effect after a single administration” value was in the range of 24 to 36 h. Besides, the dissociation constant entry in experiment [5] is “low”.

As to `O=c1ccc2ccc(OCCCCN3CCN(c4cccc5sccc45)CC3)cc2[nH]1` [Brexpiprazole], in experiment [2], the sucrose preference result was “cannot change the depressive-like behavior”. Moreover, the immobility time result in experiment [3] (setting [7]) was “cannot change the depressive-like behavior”; in experiment [3] (3 mg/kg intravenous), “significantly reducing”; in experiment [6] (setting [7]) it was “cannot change the depressive-like behavior”; in experiment [6] (3 mg/kg intravenous), “significantly reducing”.
